Laboratory results from ChEMBL document CHEMBL5385872, “Design and syntheses of a bimolecular STING agonist based on the covalent STING antagonist” (Eur J Med Chem, 2023).
Calls of active or inactive are those of the source.

What was measured:
[1] = molecular target: Stimulator of interferon genes protein (Homo sapiens) (UniProt Q86WV6); test: Induction of STING-dependent gene expression in human HT-1080 cells assessed as IFNbeta mRNA expression at 20 uM incubated for 8 hrs by qRT-PCR analysis; assay type: cell-based; settings: filed as agonist
Stimulator of interferon genes protein (Homo sapiens), sequence (Q86WV6 whole entry): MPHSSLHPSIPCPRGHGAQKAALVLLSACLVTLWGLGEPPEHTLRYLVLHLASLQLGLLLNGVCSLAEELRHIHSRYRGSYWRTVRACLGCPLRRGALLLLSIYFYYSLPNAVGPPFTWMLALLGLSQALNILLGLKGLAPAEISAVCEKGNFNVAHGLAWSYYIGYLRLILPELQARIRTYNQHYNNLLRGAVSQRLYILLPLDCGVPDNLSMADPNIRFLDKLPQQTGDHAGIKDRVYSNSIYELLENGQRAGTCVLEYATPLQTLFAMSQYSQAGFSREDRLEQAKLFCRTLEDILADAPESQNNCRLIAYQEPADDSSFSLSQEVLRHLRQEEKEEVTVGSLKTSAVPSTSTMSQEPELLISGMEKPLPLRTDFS

[2] = molecular target: T1, Stimulator of interferon genes protein (Mus musculus) (UniProt Q3TBT3); test: Agonist activity at STING in mouse BMDC cells assessed as change in TBK1 phosphorylation (initially increase and then decreased) at 20 uM measured after 5 hrs by Western blot analysis; assay type: cell-based; settings: filed as agonist
T1 sequence (whole entry): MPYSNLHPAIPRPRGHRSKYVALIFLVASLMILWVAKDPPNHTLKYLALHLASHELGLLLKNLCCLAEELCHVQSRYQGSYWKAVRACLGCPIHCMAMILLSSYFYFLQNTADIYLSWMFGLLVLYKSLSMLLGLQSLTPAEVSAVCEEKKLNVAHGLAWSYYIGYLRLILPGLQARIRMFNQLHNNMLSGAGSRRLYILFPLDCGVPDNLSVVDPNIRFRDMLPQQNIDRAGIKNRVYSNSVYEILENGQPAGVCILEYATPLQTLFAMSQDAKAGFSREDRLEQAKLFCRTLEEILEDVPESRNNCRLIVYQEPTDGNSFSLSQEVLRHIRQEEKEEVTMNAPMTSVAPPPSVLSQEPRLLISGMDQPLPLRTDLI

[3] = molecular target: T1, Stimulator of interferon genes protein (Mus musculus); test: Agonist activity at STING in mouse BMDM cells assessed as change in TBK1 phosphorylation (initially increase and then decreased) at 20 uM measured after 5 hrs by Western blot analysis; assay type: cell-based; settings: filed as agonist
[4] = molecular target: Stimulator of interferon genes protein (Homo sapiens) (UniProt Q86WV6); test: Induction of STING-dependent gene expression in human HT-1080 cells assessed as IFNalpha mRNA expression at 20 uM incubated for 8 hrs by qRT-PCR analysis; assay type: cell-based; settings: filed as agonist
Mus musculus [5] = test: Induction of immune-activation effect in wild type female BALB/c mouse assessed as increase in serum IFNbeta level at 15 to 30 mg/kg, ip measured after 24 to 48 hrs by ELISA relative to control; assay type: functional, organism-based; settings: dose 15-30 mg/kg, time 24-48 hrs
[6] = molecular target: T1, Stimulator of interferon genes protein (Mus musculus); test: Induction of STING-dependent gene expression in mouse BMDC cells assessed as IFNalpha mRNA expression at 20 uM incubated for 8 hrs by qRT-PCR analysis; assay type: cell-based; settings: filed as agonist
Mus musculus [7] = test: Induction of immune-activation effect in wild type female BALB/c mouse assessed as increase in serum TNFalpha level at 15 to 30 mg/kg, ip measured after 24 to 48 hrs by ELISA relative to control; assay type: functional, organism-based; settings: dose 15-30 mg/kg, time 24-48 hrs
[8] = molecular target: T1, Stimulator of interferon genes protein (Mus musculus); test: Induction of STING-dependent gene expression in mouse BMDC cells assessed as IFNbeta mRNA expression at 20 uM incubated for 8 hrs by qRT-PCR analysis; assay type: cell-based; settings: filed as agonist
[9] = molecular target: T1, Stimulator of interferon genes protein (Mus musculus); test: Induction of STING dimerization in mouse BMDM cells assessed as dimerization (initially increase and then decreased) at 2.5 to 20 uM measured after 5 hrs by Western blot analysis; assay type: cell-based; settings: filed as agonist, dose 2.5-20 µM
[10] = molecular target: Stimulator of interferon genes protein (Homo sapiens) (UniProt Q86WV6); test: Induction of oligomerization of STING in HEK-293T cells stably expressing STING-Flag ( unknown origin) measured after 4 hrs by immunoprecipitation assay; assay type: cell-based; settings: filed as agonist
[11] = molecular target: T1, Stimulator of interferon genes protein (Mus musculus); test: Induction of STING dimerization in mouse BMDC cells assessed as dimerization (initially increase and then decreased) at 2.5 to 20 uM measured after 5 hrs by Western blot analysis; assay type: cell-based; settings: filed as agonist, dose 2.5-20 µM

Measured: Activity

O=C(NCCCCCCCNC(=O)c1ccc([N+](=O)[O-])o1)c1ccc([N+](=O)[O-])o1
active: [1] | [2] | [3] | [4] | Mus musculus [5] | [6] | Mus musculus [7] | [8] | [9] | [10] | [11]
